Blank lines part the entries; values can stand above or below the molecule they belong to.
What was measured:
[1] = Serum lipids on day 28, (db-/db-) mice; type: in vivo
Description: (§1) Methods: Mice were obtained from Jackson Laboratories and acclimated to the facility. At about 5 weeks of age, mice were prospectively randomized into groups and assigned to the treatment conditions shown in FIG. 1. Topical treatments were applied in a thin film to the right flank skin without occlusive dressings; subcutaneous injections were also administered to the right flank. […] They were housed in the same room, in 11 cages according to group, and fed ad libitum. Skin tissue was sampled and serum lipids tested on day 28. Tissue was fixed in formalin and stained with hematoxylin and eosin.
FIG. 5 charts the triglyceride and total cholesterol results (mg/dl) for the topical treatment conditions as follows: Group 1=C, 3=D, 4=E, 5=F, 6=G, 10=H, 11=I.

[2] = Weight gain and condition, 4-week repeat-dose trial in (db-/db-) mice; type: in vivo
Description: A randomized, controlled, repeat-dose, 4-week trial was conducted on (db−/db−) mice, which are defective for the leptin receptor (Jackson Laboratories). These mice are genetically obese, dyslipidemic, and diabetic.
as §1

[3] = Projected systemic dose, mouse (FIG. 12); type: in vivo; settings: topical, 100% serum bioavailability assumed
Text: (§2) FIG. 12 compares various topical doses of latanoprost in mouse, rat, and human, with respect to projected systemic dose. All calculations assume once-daily dosing and 100% serum bioavailability. The derivation of each dose is set forth based on the animal body weight, drug concentration, and drug volume. Finally, doses are scaled allometrically for body surface area (mg/m^2/d), as is appropriate for most low-molecular-weight molecules.

subcutaneous fat [4] = test: Histologic sections of skin and subcutaneous fat, (db-/db-) mice; type: in vivo; settings: for adipocytes and adipose layer, treated (right) flank / adipocytes and adipose layer, untreated (left) flank: day 28; for local versus systemic effect by histology: topical, concentration up to 0.3%
Description: as §1
All sections are shown at the same magnification (scale bar at top right=640 microns). The surface of the skin is oriented toward the top and left of each panel. Arrows in each section denote the panniculus carnosus, an anatomic layer that separates the first layer of subdermal fat from deeper, subpannicular fat (separation artifact is commonly seen deep to the panniculus and is not an in vivo process).

[5] = obese adults, 120 mg three times daily, after two years; cited from earlier work
[6] = Minimum effective dose and projected systemic dose, rat (FIG. 12); type: in vivo
Text: These effects were dose-dependent, and the minimum effective dose for these effects was deemed to be the 0.05% concentration.
as §2

[7] = Clinical application: person with metabolic syndrome, latanoprost transdermal 0.7% gel (Example 7); type: in vivo, human; settings: 2 ml once daily, 1 to 6 months
Description: The following description exemplifies a clinical application of the invention to treat obesity, dyslipidemia, and type 2 diabetes mellitus in a person with metabolic syndrome.
A person is suffers from obesity, dyslipidemia, and type 2 diabetes. […] Their waist circumference is 42 inches. Their noninvasive blood pressure is 184/98. Their fasting serum glucose is […] and their glycated hemoglobin (hemoglobin A1C) is 8.1. Fasting serum lipids are as follows: triglycerides, 220 mg/dL; total cholesterol, 310 mg/dL, LDL 240 mg/dL, HDL, 35 mg/dL. Their physical exam is notable for prominent central (abdominal) obesity. In addition to medical therapy, the person's physician recommends a regimen of diet and exercise. After six months the person's weight, hemoglobin A1C, serum glucose, and serum lipids are unimproved. The physician prescribes systemic therapy with latanoprost, for example, a transdermal 0.7% gel in a metered-dose dispenser, with instructions to apply 2 ml metered dose once daily to the skin of the shoulders. After a period of time, for example from 1 to 6 months, the person's weight is reduced. Serum glucose, hemoglobin A1C, fasting serum LDL, and fasting serum triglycerides also diminish. Fasting serum HDL rises.

subcutaneous fat [8] = test: Histologic sections of skin and subcutaneous fat, ZDF rats; type: in vivo
Description: (§3) Methods: Male ZDF rats, approximately 8 weeks old, were obtained from Jackson Laboratories and acclimated to the facility. There were 3 animals per treatment arm. Test articles were applied in a thin film to the right flank without occlusive dressings, at 0.3 ml daily for 28 days. Rats were fed ad libitum and housed in the same room in 4 cages according to group. […] Food consumption was measured by residual weight of chow. Animals were fasted overnight prior to day 29, and Oral Glucose Tolerance Tests were conducted on day 29 (1 g glucose per kg body weight). Skin tissue and serum chemistries were collected at day 29.
All sections are shown at the same magnification (scale bar at top right=500 microns). The surface of the skin is oriented toward the top of each panel.

[9] = Serum lipid levels on day 29, ZDF rats; type: in vivo
Description: as §3

[10] = Weight gain, food consumption and condition, 4-week study of latanoprost transdermal cream in ZDF rats; type: in vivo; settings: for mean weight gain for days 0 to 29: 0.3 ml daily, vs vehicle
Description: A controlled, repeat-dose, 4-week, dose-ranging study of latanoprost transdermal cream was conducted in Zucker Diabetic Fatty (ZDF) rats (ZDF-Lepr^fa/Crl), which are defective for the leptin receptor, obese, hyperlipidemic, and diabetic.
as §3

[11] = in vivo; cited from earlier work
[12] = Oral Glucose Tolerance Test on day 29, ZDF rats; type: in vivo; settings: for oral glucose tolerance: day 29; for serum glucose AUC15-120 lower compared to vehicle-treated animals: 15 to 120 minutes post-glucose load
Description: as §3

[13] = Human ophthalmic dose and projected human transdermal dose (FIG. 12); settings: by comparison to minimum effective dose in the rat
Text: as §2

[14] = Clinical application: person with dyslipidemia, oral extended-release tafluprost (Example 8); type: in vivo, human; settings: oral extended-release 5 mg daily, 1 to 6 months
Text: The following description exemplifies a clinical application of the invention to reduce lipid concentrations in a patient with dyslipidemia and a history of coronary artery disease and myocardial infarction. A person with a history of obesity, hyperlipidemia, coronary artery disease, and myocardial infarction is found to have elevated serum triglycerides, total cholesterol, and low density lipoprotein, despite use of a statin. The person's physician prescribes an oral, extended-release formulation of tafluprost, for example, an extended-release tablet comprising 5 mg tafluprost, with instructions to take one capsule by mouth daily. After a period of time, for example from 1 to 6 months, the person's serum triglycerides, total cholesterol, and low density lipoprotein concentrations are reduced. Body weight is also seen to improve.

[15] = transdermal/topical to right flank skin, vs vehicle
[16] = topical 0.5% and 0.05%, day 29, vs vehicle, not statistically significant

Compound: O=C(O)CCC/C=C\C[C@@H]1[C@@H](/C=C/[C@@H](O)CCc2ccccc2)[C@H](O)C[C@@H]1O [BFA, 17-phenyl trinor prostaglandin F2α]
serum lipids ([1]; intraperitoneal, day 28): no significant effect on serum lipids | serum lipids ([1]; subcutaneous, day 28): no significant effect on serum lipids | serum triglycerides ([1]; transdermal 0.1% or 0.3%, unfasted, day 28, vs control): significantly reduced | mean weight gain for days 0 to 28 ([2]; intraperitoneal): no significant effect on weight gain | mean weight gain for days 0 to 28 ([2]; subcutaneous, right flank): no significant effect on weight gain | mean weight gain for days 0 to 28 [2, 15]: reduced weight gain significantly and in a dose-dependent manner

Compound: CC(C)OC(=O)CCC/C=C\C[C@@H]1[C@@H](/C=C/[C@@H](O)CCc2ccccc2)[C@H](O)C[C@@H]1O [BIE, 17-phenyl trinor prostaglandin F2α isopropyl ester]
serum lipids ([1]; subcutaneous, day 28): no significant effect on serum lipids | serum total cholesterol ([1]; transdermal 0.1%, unfasted, day 28): significantly lower | systemic dose at which serum lipids and obesity responded [3]: 10 mg/m^2/d | adipocytes deep to the panniculus (subcutaneous fat [4]; topical 0.3%): profound shrinkage of adipocytes deep to the panniculus | adipocytes and adipose layer, treated (right) flank (subcutaneous fat [4]; topical 0.3%): smaller adipocytes and thinner adipocyte layers | adipocytes and adipose layer, untreated (left) flank (subcutaneous fat [4]; topical 0.3%): smaller adipocytes and thinner adipocyte layers | local versus systemic effect by histology (subcutaneous fat [4]): indicative of a systemic effect | mean weight gain for days 0 to 28 ([2]; subcutaneous, right flank): no significant effect on weight gain | potency of transdermal BIE relative to transdermal BFA, for each effect (weight gain, serum lipids) ([2]; transdermal): more potent | mean weight gain for days 0 to 28 [2, 15]: reduced weight gain significantly and in a dose-dependent manner

Compound: CCCCCCCCCCC[C@@H](C[C@@H]1OC(=O)[C@H]1CCCCCC)OC(=O)[C@H](CC(C)C)NC=O [Orlistat]
loss of baseline body weight [5]: 8.8% | serum lipids and serum glucose [5]: not accompanied by any absolute improvement in serum lipids or serum glucose

Compound: CCNC(=O)CCC/C=C\C[C@@H]1[C@@H](/C=C/[C@@H](O)CCc2ccccc2)[C@H](O)C[C@@H]1O [bimatoprost, 17-phenyl trinor prostaglandin F2α ethyl amide]
serum lipids ([1]; topical, day 28): no significant effect on serum lipids | adipocytes and adipose layer, treated (right) flank (subcutaneous fat [4]; topical 0.3%): smaller adipocytes and a thinner adipose layer | adipocytes and adipose layer, untreated (left) flank (subcutaneous fat [4]; topical 0.3%): resembled that of a vehicle-treated animal | local versus systemic effect by histology (subcutaneous fat [4]): local effect, but not a systemic effect

daily observations and skin condition ([10]; topical 0.005-0.5%, 28 days): unremarkable
Compound: CC(C)OC(=O)CCC/C=C\C[C@@H]1[C@@H](CC[C@@H](O)CCc2ccccc2)[C@H](O)C[C@@H]1O [latanoprost, 17-phenyl-13,14-dihydro trinor prostaglandin F2α isopropyl ester]
minimum effective dose of topical latanoprost, as concentration ([6]; rat, equivalent of 0.05%): 0.5 mg/mL | systemic dose corresponding to minimum effective topical dose ([6]; rat, once-daily dosing, 100% serum bioavailability assumed, scaled for body surface area): 3.6 mg/m^2/d | minimum effective dose (concentration) for weight gain, serum lipids, glucose tolerance ([6]; transdermal, ZDF rat): 0.05% | fasting serum HDL [7]: rises | serum glucose, hemoglobin A1C, fasting serum LDL, fasting serum triglycerides [7]: diminish | weight [7]: reduced | adipocytes and adipose layer, treated (right) flank (subcutaneous fat [8]; topical 0.005%): fewer and smaller adipocytes, and a thinner adipose layer | adipocytes and adipose layer, untreated (left) flank (subcutaneous fat [8]; topical 0.005%): resembled that of a vehicle-treated animal | local versus systemic effect by histology (subcutaneous fat [8]; topical 0.005%): local effect, but not a systemic effect | adipocytes, adipose layer and dermis, treated flank (subcutaneous fat [8]; topical 0.5%): fewer and smaller adipocytes, and thinner adipose layer and dermis | adipocytes, adipose layer and dermis, untreated flank (subcutaneous fat [8]; topical 0.5%): fewer and smaller adipocytes, and thinner adipose layer and dermis | local versus systemic effect by histology (subcutaneous fat [8]; topical 0.5%): indicative of a systemic effect | serum lipid benefits (triglycerides, LDL, HDL, HDL:LDL ratio) ([9]; topical 0.005%, day 29): absent | HDL:LDL ratio ([9]; topical 0.5% and 0.05%, day 29, vs vehicle, 0.5% one-sided p<0.05): dose-dependent increases | serum HDL [9, 16]: dose-dependent increases | serum LDL [9, 16]: dose-dependent reductions | serum triglycerides [9, 16]: dose-dependent reductions | mean weight gain for days 0 to 29 ([10]; topical 0.005%): dose-dependent reductions in weight gain | mean weight gain for days 0 to 29 ([10]; topical 0.05%): dose-dependent reductions in weight gain, which were statistically significant | mean weight gain for days 0 to 29 ([10]; topical 0.5%): dose-dependent reductions in weight gain, which were statistically significant | serum elimination half-life [11]: about 17 minutes | oral glucose tolerance ([12]; topical 0.005%): no effect on oral glucose tolerance | serum glucose AUC15-120 lower compared to vehicle-treated animals ([12]; topical 0.05%): 12% | oral glucose tolerance ([12]; topical 0.5% and 0.05%): dose-dependent improvements in oral glucose tolerance | serum glucose AUC15-120 lower compared to vehicle-treated animals ([12]; topical 0.5%): 26% | predicted human transdermal dose sufficient for systemic benefit (serum lipids, diabetic condition, obesity) [13]: about 7 mg per day

Compound: CC(C)OC(=O)CCC/C=C\C[C@@H]1[C@@H](/C=C/C(F)(F)COc2ccccc2)[C@H](O)C[C@@H]1O [tafluprost]
body weight [14]: improve | serum triglycerides, total cholesterol, low density lipoprotein concentrations [14]: reduced

Reference: US10335418B2, “Methods and compositions for treating metabolic syndrome” (Topokine Therapeutics, Inc., priority 2011, dated 2019)
